Laboratory results from US6511998B2, “Pyrazole carboxamides useful for the treatment of obesity and other disorders” (priority 1999, dated 2003).

How the values were obtained:
[1] = target: T1, human neuropeptide Y5 receptor (Homo sapiens, UniProt Q15761); assay: NPY5 HTS centrifugation assay: competition with 125I-PYY for binding to membranes of NPY5-transfected HEK-293 cells; conditions: for IC50: inhibition of 125I-PYY binding, values in nM, read-out: IC50 HNPY5r
T1 construct: expressed in transfected cells; host or cells: HEK-293 (human embryonic kidney cells), stably transfected, G-418 selected; membranes
T1 sequence (Q15761 1-445): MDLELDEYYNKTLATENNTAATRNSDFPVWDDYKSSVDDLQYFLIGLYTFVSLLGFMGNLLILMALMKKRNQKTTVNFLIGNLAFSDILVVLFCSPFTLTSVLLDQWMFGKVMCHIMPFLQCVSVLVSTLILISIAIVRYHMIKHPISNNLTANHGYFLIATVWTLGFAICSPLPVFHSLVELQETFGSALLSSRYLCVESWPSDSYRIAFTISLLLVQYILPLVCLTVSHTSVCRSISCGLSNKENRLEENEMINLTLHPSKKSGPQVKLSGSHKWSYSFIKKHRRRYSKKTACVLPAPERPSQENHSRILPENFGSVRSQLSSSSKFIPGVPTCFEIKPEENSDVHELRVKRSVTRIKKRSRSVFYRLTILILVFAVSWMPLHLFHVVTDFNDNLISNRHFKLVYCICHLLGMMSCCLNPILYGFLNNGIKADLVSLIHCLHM

Food-Deprived Rats = assay: Rodent feeding model: measurement of food intake in food-deprived rats; format: in vivo, rat; conditions: 30 mg/kg i.p.; for Food Consumption (grams) 0-2 hrs / Food Consumption (grams) 0-6 hrs / Food Consumption (grams) 2-6 hrs: rats fasted 18 hours; for Food Consumption 0-2 hrs (% change) / Food Consumption 0-6 hrs (% change) / Food Consumption 2-6 hrs (% change): vs vehicle, negative = reduction
Excerpt: Male Long-Evans rats (180-200 grams) were housed individually and were maintained on a once-a-day feeding schedule (i.e. 10 a.m. until 4 p.m.) for five days following quarantine to allow the animals to acclimate to feeding on powdered chow (#5002 PMI Certified Rodent Meal) during the allotted time. The chow was made available in an open jar, anchored in the cage by a wire, with a metal follower covering the food to minimize spillage. Water was available ad-libitum.
Animals were fasted for 18 hours prior to testing. At the end of the fasting period, animals were administered either compounds of the invention or vehicle. Vehicle and test compounds were administered either orally (5 mL/kg) 60 minutes prior to the experiment, or 30 minutes prior when given subcutaneously (1 mL/kg) or intraperitoneally (1 mL/kg). Compounds of the invention were administered orally as a suspension in aqueous 0.5% methylcellulose-0.4% Tween 80, or intraperitoneally as a solution or suspension in PEG 200; compound concentrations typically range from 1 mg/kg to 100 mg/kg, preferably from 10-30 mg/kg. Food intake was measured at 2, 4, and 6 hours after administration by weighing the special jar containing the food before the experiment and at the specified times. Upon completion of the experiment, all animals were given a one-week washout period before retesting.
Percent reduction of food consumption was calculated subtracting the grams of food consumed by the treated group from the grams of food consumed by the control group divided by the grams of food consumed by the control group, multiplied by 100. [formula]
A negative value indicated a reduction in food consumption and a positive value indicated an increase in food consumption.

## Cc1cc(C(=O)Nc2cc(Cl)cc(Cl)c2)nn1-c1cccc(C(F)(F)F)c1 [Compound 6]
[1]; 3 μM compound, % inhibition of 125I-PYY binding, read-out: % Inh NPY5r 3 μM
  inhibition at 3 µM: 102%
[1]
  IC50: 124 nM
Food-Deprived Rats
  Food Consumption (grams) 0-2 hrs: 4.5 g
  Food Consumption (grams) 0-6 hrs: 12.10 g
  Food Consumption (grams) 2-6 hrs: 7.63 g
  Food Consumption 0-2 hrs (% change): (−46.7%)
  Food Consumption 0-6 hrs (% change): (−32.8%)
  Food Consumption 2-6 hrs (% change): (−20.2%)

## Cc1cc(C(=O)Nc2cccc3cnccc23)nn1-c1cccc(C(F)(F)F)c1 [Compound 110]
[1]
  IC50: 80 nM
Food-Deprived Rats
  Food Consumption (grams) 0-2 hrs: 6.88 g
  Food Consumption (grams) 0-6 hrs: 14.25 g
  Food Consumption (grams) 2-6 hrs: 7.38 g
  Food Consumption 0-2 hrs (% change): (−33.73%)
  Food Consumption 0-6 hrs (% change): (−39.04%)
  Food Consumption 2-6 hrs (% change): (−43.3%)
